Reference: patent US20260242759A1, “GQ/11 Protein Peptidomimetics” (Vrije Universiteit Brussel, priority 2022, published 2026)
Non-standard residues stand in square brackets, D forms with d. Residues, ends and D or L forms follow the SMILES beside them. Cha = N[C@@H](CC1CCCCC1)C(=O)O

Tests used:
[1] = system: HEK293 1C8 cells; experiment: MTT cytotoxicity assay; type: cell-based, human; conditions: varying concentrations up to 40 μM, 3 h 45 min
Description: Cells were washed two times with PBS and incubated with 3-(4,5-dimethylthiazol-2-yl)-2,5-diphenyltetrazolium bromide (MTT) during 3 h, at 37° C. Afterwards, cells were washed once with PBS and then incubated for 10 min with DMSO. Plates were analysed with a Tecan Spark 10 M microplate reader.
An MTT assay was used to assess the cytotoxicity of the non-fluorescent Gq/11 peptidomimetics of Example 5. An MTT assay is a colorimetric test that evaluates the cell metabolic activity and reflects the cell viability.

[2] = molecular target: T1, human muscarinic 1 receptor (M1R) (Homo sapiens, UniProt P11229); experiment: Radioligand binding assay (RLA) on M1R membrane extracts; conditions: IC50 of agonist without mimetic divided by IC50 with mimetic; averaged value
T1 construct: The M1R constructs used in this assay consisted of the full-length human muscarinic 1 receptor; FLAG (N); expressed in transfected cells; membrane extracts
T1 sequence (P11229 1-460): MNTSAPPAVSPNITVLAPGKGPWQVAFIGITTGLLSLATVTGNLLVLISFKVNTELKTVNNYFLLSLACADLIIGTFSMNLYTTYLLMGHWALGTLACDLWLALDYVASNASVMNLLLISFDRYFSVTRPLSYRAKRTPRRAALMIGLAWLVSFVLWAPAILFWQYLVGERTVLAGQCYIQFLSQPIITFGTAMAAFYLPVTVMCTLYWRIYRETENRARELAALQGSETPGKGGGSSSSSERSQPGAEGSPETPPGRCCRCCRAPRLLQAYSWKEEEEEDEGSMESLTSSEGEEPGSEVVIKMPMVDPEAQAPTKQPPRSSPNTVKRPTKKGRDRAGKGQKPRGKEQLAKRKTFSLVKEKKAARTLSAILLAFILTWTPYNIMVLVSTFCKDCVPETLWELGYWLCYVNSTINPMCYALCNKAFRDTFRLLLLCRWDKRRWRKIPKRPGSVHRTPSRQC
From the text: A radioligand displacement assay can quantify the pharmacological stabilization of the GPCR in the active conformation by comparing the affinities of an agonist for the basal versus the active GPCR conformer. In particular, stabilization of a GPCR in an active conformational state or specific binding to a GPCR in an active conformational state by a G protein peptidomimetic or a Gq/11 protein peptidomimetic as disclosed herein can be determined based on the shift in IC50 value of a ligand, in particular an agonist more particularly an orthosteric agonist, which binds to the GPCR when tested in the presence and the absence of the G protein peptidomimetic or the Gq/11 protein peptidomimetic. During the assay, the binding affinity of an orthosteric agonist for the receptor in presence and absence of the (allosteric) peptidomimetic is determined. Therefore, the GPCR, e.g. embedded in membrane extracts, is incubated with a radioligand and different concentrations of the agonist. By increasing the agonist concentration, radioligand will be displaced by the agonist. A leftward shift of the curve in the presence of the peptidomimetic is indicative of a peptidomimetic capable of stabilizing a GPCR in an active conformational state. A “shift” in IC50 value or IC50 shift is defined herein as the IC50 ratio of a ligand, in particular an agonist, more particularly an orthosteric agonist, which binds to the GPCR in the absence of a G protein peptidomimetic or a Gq/11 protein peptidomimetic relative to the presence of the G protein peptidomimetic or the Gq/11 protein peptidomimetic, or the IC50 value of a ligand, in particular an agonist, for binding to the GPCR in the absence of a G protein peptidomimetic or a Gq/11 protein peptidomimetic divided by the IC50 value of the ligand in the presence of the G protein peptidomimetic or the Gq/11 protein peptidomimetic in the same preparation, wherein said IC50 values are determined in a radioligand binding assay or radioligand displacement assay (RLA) as known to the skilled person. For example, a human muscarinic acetylcholine 1 receptor (M1R) radioligand binding assay using ^3H—N-methyl scopolamine (^3H-NMS) as the radioligand and increasing concentrations of acetylcholine chloride (agonist) as cold competitor may be used.
The membrane extracts were prepared from cells that overexpressed muscarinic acetylcholine 1 receptor (M1R), by resuspending the cell pellet in a buffer (1 ml buffer/2×1E7 cells) containing 20 mM Hepes (pH 7.4), 100 mM NaCl, Leupeptin and phenylmethylsulfonyl fluoride (PMSF). Afterwards the cells were vortexed and homogenized in ice using a small volume ULTRA-TURRAX® (6×10 sec). The cells were then centrifuged for 15 min at 16000 rcf, in a pre-cooled centrifuge (4° C.) and resuspended in the previous buffer containing 10% sucrose. Finally, the membranes were again homogenized in ice with the small volume ULTRA-TURRAX® (3×10 sec). The protein concentration in the membrane extracts was determined using a Pierce™ bicinchoninic acidv (BCA) Protein Assay Kit and the protein concentration was extrapolated from the Bovine Serum Albumine standard curve.
The M1R constructs used in this assay consisted of the full-length human muscarinic 1 receptor with a FLAG tag at the N-terminus. A buffer containing 20 mM Hepes pH 7.4, 100 mM NaCl, and 0.1% BSA was used for the ligands, membrane extracts and peptides (+1% dimethylsulfoxide (DMSO)). The competition assay was performed with [3H]—N-methyl scopolamine ([3H]-NMS) as radiolabeled antagonist, at a final concentration of 0.6 nM. A ten-fold dilution series of the agonist, acetylcholine chloride, was prepared to obtain a dose response curve. After incubation, the samples were harvested into filter plates (GF/C) and washed with ice cold washing buffer (20 mM Hepes pH 7.4) using the 96-well harvester. […]

SMILES: CC[C@H](C)[C@H](NC(=O)[C@@H](NC(=O)[C@H](CC(=O)O)NC(=O)[C@H](CCCCN)NC(=O)[C@@H](NC(=O)[C@H](C)NC(=O)[C@H](C)NC(=O)[C@H](Cc1ccccc1)NC(=O)[C@H](CCCCN)NC(=O)[C@H](CCCCN)NC(=O)[C@H](CCCCN)NC(C)=O)C(C)C)[C@@H](C)O)C(=O)N[C@@H](CC(C)C)C(=O)N[C@@H](CCC(N)=O)C(=O)N[C@@H](CC(C)C)C(=O)N[C@@H](CC(N)=O)C(=O)N[C@@H](CC(C)C)C(=O)N[C@@H](CCCCN)C(=O)N[C@@H](CCC(=O)O)C(=O)N[C@@H](Cc1ccc(O)cc1)C(=O)N[C@@H](CC(N)=O)C(=O)N[C@@H](CC1CCCCC1)C(=O)N[C@H](C(=O)O)C(C)C [SBL-GQ-04] (Ac-KKKFAAVKDTILQLNLKEYN[Cha]V-OH)
- cytotoxicity / viability [1]: No cytotoxicity
- Shift [2]: 4
